Data from patent US7932283B2, “Fungicide N-cyclopropyl-sulfonylamide derivatives” (Bayer Cropscience AG, priority 2006, dated 2011).

Test: logP by HPLC on reversed-phase column (C 18), EEC Directive 79/B31 Annex V.A8, methods A and B
Format: physicochemical
Details: reversed-phase HPLC column (C 18)
Description: Calibration was carried out using unbranched alkan-2-ones (having 3 to 16 carbon atoms) with known logP values (determination of the logP values by the retention times using linear interpolation between two successive alkanones).

[1] = HPLC reversed-phase C 18, method B: 40° C., 0.1% aqueous formic acid and acetonitrile, linear gradient 10% to 90% acetonitrile
[2] = LogP method B: HPLC reversed-phase C 18, 40° C., 0.1% aqueous formic acid / acetonitrile, linear gradient 10% to 90% acetonitrile
[3] = LogP method A: HPLC reversed-phase C 18, 43° C., 0.1% aqueous phosphoric acid / acetonitrile, linear gradient 10% to 90% acetonitrile
[4] = HPLC reversed-phase C 18, method A: 43° C., 0.1% aqueous phosphoric acid, acetonitrile, linear gradient 10% to 90% acetonitrile

Cc1cc(C(=O)N(C2CC2)S(=O)(=O)c2cccc(O)c2O)nn1C [Compound 74] gave a chromatographic logP [1] of 2.7.

In the case of COc1nn(C)cc1C(=O)N(C1CC1)S(=O)(=O)c1ccc(Oc2cccc(C(F)(F)F)c2)cc1Br [Compound 472], the chromatographic logP [2] is reported as 3.8.

With CCOc1nn(C)cc1C(=O)N(C1CC1)S(=O)(=O)C1C=CC(Oc2cccc(C(F)(F)F)c2)=C(O)C1 (stereo not shown) [Compound 549] the chromatographic logP [2] was 4.4.

For Cc1c(C(=O)N(C2CC2)S(=O)(=O)c2cccc(O)c2)sc(=O)n1Cc1ccccc1 [Compound 613], the chromatographic logP [3] was 2.01.

With Cc1ncc(C(=O)N(C2CC2)S(=O)(=O)c2cccc(O)c2)s1 [Compound 60] the chromatographic logP [4] was 2.8.

In the case of CCOc1nn(C)cc1C(=O)N(C1CC1)S(=O)(=O)c1ccc(Oc2cccc(O)c2)cc1O [Compound 534], the chromatographic logP [2] is reported as 3.9.

Cn1nc(C(F)(F)F)c(C(=O)N(C2CC2)S(=O)(=O)c2ccccc2OC(F)(F)F)c1F [Compound 365] showed a chromatographic logP [1] of 3.2.

Work on COc1cscc1C(=O)N(C1CC1)S(=O)(=O)c1cccc(O)c1O [Compound 25] yielded a chromatographic logP [1] of 3.3.

In the case of Cc1nn(C)cc1C(=O)N(C1CC1)S(=O)(=O)c1ccccc1O [Compound 197], the chromatographic logP [4] is reported as 1.95.

Cc1cnn(C)c1C(=O)N(C1CC1)S(=O)(=O)c1ccc(O)c(O)c1O [Compound 659] gave a chromatographic logP [2] of 3.6.

COc1nn(C)cc1C(=O)N(C1CC1)S(=O)(=O)c1ccc(Oc2ccc(Br)c(O)c2)cc1Br [Compound 480] gave a chromatographic logP [2] of 4.2.

Compound Cc1nn(C)c(F)c1C(=O)N(C1CC1)S(=O)(=O)c1cc(O)cc(O)c1 [Compound 193] has a chromatographic logP [4] of 3.48.

Work on Cn1nc(C(F)(F)F)c(C(=O)N(C2CC2)S(=O)(=O)c2ccc(Oc3ncc(C(F)(F)F)cc3O)cc2)c1F [Compound 372] yielded a chromatographic logP [1] of 4.2.

For CCc1nn(C)c(F)c1C(=O)N(C1CC1)S(=O)(=O)c1ccc(Oc2ccc(O)cc2)cc1 [Compound 391], the chromatographic logP [1] was 4.2.

O=C(c1cccnc1Cl)N(C1CC1)S(=O)(=O)c1cccc(O)c1 [Compound 643] gave a chromatographic logP [3] of 2.91.

With Cc1nn(C)c(F)c1C(=O)N(C1(c2ccccc2)CC1)S(=O)(=O)c1cccc(O)c1O [Compound 670] the chromatographic logP (Method B: 40° C., 0.1% aqueous formic acid and acetonitrile) was 4.1.

In the case of CCCCc1ccc(S(=O)(=O)N(C(=O)c2c(CC)nn(C)c2F)C2CC2)cc1 [Compound 383], the chromatographic logP [1] is reported as 4.2.

CC(C)c1nn(C)c(F)c1C(=O)N(C1CC1)S(=O)(=O)c1cccc(O)c1O [Compound 93] gave a chromatographic logP [1] of 3.6.

With Cc1cc(C(=O)N(C2CC2)S(=O)(=O)c2cccc(O)c2O)c(C)o1 [Compound 5] the chromatographic logP [1] was 3.8.

Compound Cn1nc(C2CC2)c(C(=O)N(C2CC2)S(=O)(=O)c2cccc(O)c2O)c1Cl [Compound 225] has a chromatographic logP [1] of 4.7.

Work on Cc1cnn(C)c1C(=O)N(C1CC1)S(=O)(=O)c1cccc(O)c1O [Compound 658] yielded a chromatographic logP [2] of 3.1.

Compound CCCOc1nn(C)cc1C(=O)N(C1CC1)S(=O)(=O)c1ccc(Oc2cc(O)cc(O)c2)cc1Br [Compound 305] has a chromatographic logP [1] of 5.1.

Cc1nn(C)c(Oc2cccc(Cl)c2)c1C(=O)N(C1CC1)S(=O)(=O)c1ccc(C(F)(F)F)cc1 [Compound 400] showed a chromatographic logP [3] of 4.13.

CCOc1nn(C)cc1C(=O)N(C1CC1)S(=O)(=O)c1ccc(Oc2ccc(OC)cc2)cc1O [Compound 529] showed a chromatographic logP [2] of 3.5.

Compound CCc1c(C(=O)N(C2CC2)S(=O)(=O)c2ccc(C(F)(F)F)cc2)sc(=O)n1C1CC1 [Compound 616] has a chromatographic logP [3] of 2.01.

With Cc1nn(C)c(F)c1C(=O)N(C1CC1c1ccccc1)S(=O)(=O)c1ccccc1O (stereo not shown) [Compound 676] the chromatographic logP (Method A: 43° C., 0.1% aqueous phosphoric acid, acetonitrile) was 3.27.

Work on Cc1cc(O)cc(O)c1S(=O)(=O)N(C(=O)c1c(C(F)(F)F)nn(C)c1F)C1CC1 [Compound 367] yielded a chromatographic logP [1] of 2.6.

Cn1nc(C(F)F)c(C(=O)N(C2CC2)S(=O)(=O)c2ccccc2O)c1F [Compound 103] gave a chromatographic logP [1] of 2.8.

For Cc1nn(C)c(F)c1C(=O)N(C1CC1)S(=O)(=O)c1cnc(O)c(Br)c1 [Compound 447], the chromatographic logP [3] was 3.08.

Cc1nn(C)c(F)c1C(=O)N(C1CC1)S(=O)(=O)c1ccccc1C#N [Compound 216] gave a chromatographic logP [4] of 2.07.

Compound Cc1nn(C)c(F)c1C(=O)N(C1CC1)S(=O)(=O)c1cccc([N+](=O)[O-])c1 [Compound 195] has a chromatographic logP [4] of 2.48.

For COc1nn(C)cc1C(=O)N(C1CC1)S(=O)(=O)c1ccc(Oc2ccc(C)c(O)c2)cc1Br [Compound 470], the chromatographic logP [2] was 3.8.

Compound O=C(c1cccnc1)N(C1CC1)S(=O)(=O)c1cccc(O)c1 [Compound 642] has a chromatographic logP [3] of 2.3.

For CCCOc1nn(C)cc1C(=O)N(C1CC1)S(=O)(=O)c1ccc(Oc2ccc(C)nc2)cc1Br [Compound 285], the chromatographic logP [1] was 2.7.

In the case of Cc1n[nH]c(C)c1C(=O)N(C1CC1)S(=O)(=O)c1ccc(O)c(C(F)(F)F)c1 [Compound 408], the chromatographic logP [3] is reported as 3.

Cc1ncc(C(=O)N(C2CC2)S(=O)(=O)c2ccc(O)c(C(F)(F)F)c2)s1 [Compound 62] gave a chromatographic logP [4] of 3.46.

Compound Cc1nocc1C(=O)N(C1CC1)S(=O)(=O)c1cccc(O)c1O [Compound 599] has a chromatographic logP [2] of 3.

CCc1c(C(=O)N(C2CC2)S(=O)(=O)c2ccc(C(C)(C)C)cc2)sc(=O)n1C1CC1 [Compound 632] showed a chromatographic logP [3] of 3.01.

With Cc1nc(C(=O)N(C2CC2)S(=O)(=O)c2ccc(C(C)(C)C)cc2)cs1 [Compound 72] the chromatographic logP [4] was 3.59.

In the case of COc1nn(C)cc1C(=O)N(C1CC1)S(=O)(=O)c1ccccc1C(F)(F)F [Compound 460], the chromatographic logP [2] is reported as 2.3.

Work on COc1nn(C)cc1C(=O)N(C1CC1)S(=O)(=O)c1ccc(Oc2cccc(N(C)C)c2)cc1Br [Compound 466] yielded a chromatographic logP [2] of 3.5.

With Cc1cc(C)c(C(=O)N(C2CC2)S(=O)(=O)c2ccc(O)c(O)c2O)c(Cl)n1 [Compound 651] the chromatographic logP [3] was 4.16.

For Cc1nc(C(=O)N(C2CC2)S(=O)(=O)c2ccc(O)c(C(F)(F)F)c2)cs1 [Compound 69], the chromatographic logP [4] was 3.63.

In the case of CCCOc1nn(C)cc1C(=O)N(C1CC1)S(=O)(=O)c1ccc(Oc2ccc(O)cc2Cl)cc1Br [Compound 301], the chromatographic logP [1] is reported as 4.9.

In the case of Cn1nc(C(F)F)c(C(=O)N(C2CC2)S(=O)(=O)c2ccccc2C(F)(F)F)c1F [Compound 106], the chromatographic logP [1] is reported as 3.

Work on Cc1cc(C(=O)N(C2CC2)S(=O)(=O)c2ccc(Oc3ccccc3)cc2)nn1C [Compound 76] yielded a chromatographic logP [1] of 3.4.

For COc1cscc1C(=O)N(C1CC1)S(=O)(=O)c1ccc(Oc2ccc(Br)cc2)cc1 [Compound 28], the chromatographic logP [1] was 4.4.

With CC(F)c1nn(C)cc1C(=O)N(C1CC1)S(=O)(=O)c1cccc(O)c1O (stereo not shown) [Compound 119] the chromatographic logP [1] was 2.8.

Work on CCOc1nn(C)cc1C(=O)N(C1CC1)S(=O)(=O)c1ccc(Oc2ccc(OC)c(OC)c2)cc1O [Compound 527] yielded a chromatographic logP [2] of 3.2.

Cc1nn(C)c(O)c1C(=O)N(C1CC1)S(=O)(=O)c1ccc(O)c(C(F)(F)F)c1 [Compound 406] showed a chromatographic logP [3] of 3.76.

COc1cscc1C(=O)N(C1CC1)S(=O)(=O)c1ccc(O)c(O)c1O [Compound 27] gave a chromatographic logP [1] of 3.9.

COc1nn(C)cc1C(=O)N(C1CC1)S(=O)(=O)c1ccc(Oc2cccc(O)c2)cc1Br [Compound 468] gave a chromatographic logP [2] of 3.7.

Cc1nc(C(=O)N(C2CC2)S(=O)(=O)c2ccc(O)c(O)c2)cs1 [Compound 70] gave a chromatographic logP [4] of 3.46.

Cc1nn(C)c(F)c1C(=O)N(C1CC1)S(=O)(=O)c1cc(O)ccc1O [Compound 191] gave a chromatographic logP [4] of 2.91.

Compound CC(C)c1nn(C)c(F)c1C(=O)N(C1CC1)S(=O)(=O)c1ccccc1C(F)(F)F [Compound 98] has a chromatographic logP [1] of 3.4.
